Results published in patent publication EP0394553A2, “Use of fluorine containing pyridone carboxylic acid derivatives for preparing a medicament for the treatment of HIV infections” (DAIICHI PHARMACEUTICAL CO., LTD., priority 1989, dated 1990).

Assays:
HIV (LAV 1) = assay: microbe, parasite or virus in culture; conditions: for Viable cell count / Viral antigen-positive cell percentage: 4-day addition
Description: (§1) Human T cell-derived, T4 antigen-positive CEM cells (provided by the Institut Pasteur, France) were used as host cells of HIV. Cell culture was carried out in a carbon dioxide-containing atmosphere in an incubator maintained at 37°C according to a conventional method [cf. […] The culture supernatant (5×10⁶ TCID₅₀/ml) obtained by subjecting CEM cells to HIV (LAV 1) infection and stored at -70°C was used as the HIV source.
The medium for cell culture (10 ml) placed in a plastic culture flask (25 cm²) was inoculated with CEM cells at a cell density of 2.5×10⁵ cells/ml. After 3 days of incubation, the culture was transferred to a 15-ml centrifuge tube and subjected to centrifugation at 1,000 revolutions per minute for 5 minutes for sedimentation of cells and removal of the culture medium.
The stock viral suspension was added to the host cells thus prepared to an MOI of 0.05 and the mixture was maintained at 37°C for 90 minutes with stirring at 30-minute intervals for viral adsorption. The medium was added to HIV-infected cells to a cell density of 5.0×10⁵ cells/ml to give an HIV-infected cell suspension.
A mixture (1.0 ml) of the three constituents mentioned below was added to each well of a 24-well plastic culture plate and the test substance final concentration was adjusted to 10 mcg/ml, 5 mcg/ml, 2.5 mcg/ml or 1 mcg/ml. The "no addition" wells (0 mcg/ml) served as controls.
After 4 days of incubation following viral infection, the cells in each well on the 24-well culture plate were suspended uniformly by pipetting and a 0.5-ml portion of the suspension was separated. A 2.0-ml portion of test substance-free fresh medium was added to the remaining 0.5-ml portion of the cell suspension, followed by incubation.
Seven days after viral infection, pipetting was performed to give a uniform cell suspension in each well and a 0.5-ml portion of the suspension was separated.
Incubation was continued and, 10 days after viral infection, a uniform cell suspension was produced in the same manner in each well and a 1.5-ml portion thereof was separated. A fresh 2.0-ml portion of the medium free of (or containing) the test substance was added to the well, followed by further incubation.
Fifteen days after viral infection, the cells in each well were suspended uniformly in the same manner in the medium and a 2.0-ml portion of the suspension was separated. A fresh 2.0-ml portion of the medium free of (or containing) the test substance was added to the remaining 0.5 ml of the cell suspension and incubation was continued.
Medium exchange was performed in the same manner 20 days and 25 days after viral infection.
The cell suspensions collected 4 days, 7 days, 10 days, 20 days and 30 days after viral infection were tested for viable cell count and viable cell percentage by trypan blue staining. At the same time, viral antigen-positive cell percentage determination was carried out by immunofluorescence using an anti-HIV antiserum isolated from a healthy carrier of HIV.
The numerical values given each is the mean for the respective two wells on the culture plate. The viable cell count is the total cell count minus the count of dead cells stained with trypan blue. The viable cell percentage is the percentage of viable cells among all the cells including dead cells. The viral antigen-positive cell percentage is the percentage of cells indicating antigen expression as found among all the cells including dead cells.

CEM cells = assay: Cytotoxicity in uninfected CEM cells (trypan blue staining); conditions: at concentrations not exceeding 10 mcg/ml
Description: as §1
The cell culture medium (10 ml) placed in a plastic culture flask (25 cm²) was inoculated with CEM cells to a cell density of 2.5×10⁵ cells/ml and incubation was performed for 3 days. Then, the culture was transferred to a 15-ml plastic centrifuge tube and centrifuged at 1,000 revolutions per minute for 5 minutes for medium removal. A fresh portion of the medium was added to the cells, the cell density being adjusted to 5.0×10⁵ cells/ml. The following mixture (1.0 ml) containing the cell suspension prepared in the above manner was incubated in a 24-well plastic culture plate for 4 days:
The cells in each well were then suspended uniformly in the medium by pipetting and a 0.5-ml portion of the suspension was separated.
A fresh 2-ml portion of the test substance-free medium was added to the remaining cell suspension (0.5 ml) and, after a further 3-day incubation, a cell suspension was produced in the same manner and a 0.5-ml portion thereof was removed.
The cell suspensions collected in the above manner were subjected to viable cell count and viable cell percentage determinations by trypan blue staining.

in vivo = conditions: mouse, po
[1] = Human immunodeficiency virus 1, CCRF-CEM, 96 h, read-out: Viable cell percentage

Compound: Cl.O.O=C(O)c1cn(C2CC2)c2cc(N3CCNCC3)c(F)cc2c1=O [CPFX, 1-cyclopropyl-6-fluoro-1,4-dihydro-4-oxo-7-(1-piperazinyl)-3-quinoline carboxylic acid hydrochloride hydrate]
- Viable cell count (HIV (LAV 1); 1 mcg/ml, after 4 days): 220 × 10⁴ cells/ml
- Viral antigen-positive cell percentage (HIV (LAV 1); 1 mcg/ml, after 4 days): 83%
- Viable cell count (HIV (LAV 1); 1 mcg/ml, after 7 days): 86 × 10⁴ cells/ml
- Viral antigen-positive cell percentage (HIV (LAV 1); 1 mcg/ml, after 7 days): 62%
- Viable cell count (HIV (LAV 1); 1 mcg/ml, after 10 days): 52 × 10⁴ cells/ml
- Viral antigen-positive cell percentage (HIV (LAV 1); 1 mcg/ml, after 10 days): 37%
- Viable cell count (HIV (LAV 1); 1 mcg/ml, after 20 days): 8 × 10⁴ cells/ml
- Viral antigen-positive cell percentage (HIV (LAV 1); 1 mcg/ml, after 20 days): 33%
- Viable cell count (HIV (LAV 1); 1 mcg/ml, after 30 days): 33 × 10⁴ cells/ml
- Viable cell count (HIV (LAV 1); 2.5 mcg/ml, after 4 days): 200 × 10⁴ cells/ml
- Viral antigen-positive cell percentage (HIV (LAV 1); 2.5 mcg/ml, after 4 days): 87%
- Viable cell count (HIV (LAV 1); 2.5 mcg/ml, after 7 days): 98 × 10⁴ cells/ml
- Viral antigen-positive cell percentage (HIV (LAV 1); 2.5 mcg/ml, after 7 days): 60%
- Viable cell count (HIV (LAV 1); 2.5 mcg/ml, after 10 days): 320 × 10⁴ cells/ml
- Viral antigen-positive cell percentage (HIV (LAV 1); 2.5 mcg/ml, after 10 days): 31%
- Viable cell count (HIV (LAV 1); 2.5 mcg/ml, after 20 days): 220 × 10⁴ cells/ml
- Viral antigen-positive cell percentage (HIV (LAV 1); 2.5 mcg/ml, after 20 days): 3%
- Viable cell count (HIV (LAV 1); 2.5 mcg/ml, after 30 days): 360 × 10⁴ cells/ml
- Viral antigen-positive cell percentage (HIV (LAV 1); 2.5 mcg/ml, after 30 days): ≦1%
- Viable cell count (HIV (LAV 1); 5 mcg/ml, after 4 days): 220 × 10⁴ cells/ml
- Viral antigen-positive cell percentage (HIV (LAV 1); 5 mcg/ml, after 4 days): 92%
- Viable cell count (HIV (LAV 1); 5 mcg/ml, after 7 days): 76 × 10⁴ cells/ml
- Viral antigen-positive cell percentage (HIV (LAV 1); 5 mcg/ml, after 7 days): 67%
- Viable cell count (HIV (LAV 1); 5 mcg/ml, after 10 days): 310 × 10⁴ cells/ml
- Viral antigen-positive cell percentage (HIV (LAV 1); 5 mcg/ml, after 10 days): 29%
- Viable cell count (HIV (LAV 1); 5 mcg/ml, after 20 days): 280 × 10⁴ cells/ml
- Viral antigen-positive cell percentage (HIV (LAV 1); 5 mcg/ml, after 20 days): 4%
- Viable cell count (HIV (LAV 1); 5 mcg/ml, after 30 days): 320 × 10⁴ cells/ml
- Viral antigen-positive cell percentage (HIV (LAV 1); 5 mcg/ml, after 30 days): ≦1%
- Viable cell count (HIV (LAV 1); 10 mcg/ml, after 4 days): 180 × 10⁴ cells/ml
- Viral antigen-positive cell percentage (HIV (LAV 1); 10 mcg/ml, after 4 days): 88%
- Viable cell count (HIV (LAV 1); 10 mcg/ml, after 7 days): 65 × 10⁴ cells/ml
- Viral antigen-positive cell percentage (HIV (LAV 1); 10 mcg/ml, after 7 days): 57%
- Viable cell count (HIV (LAV 1); 10 mcg/ml, after 10 days): 250 × 10⁴ cells/ml
- Viral antigen-positive cell percentage (HIV (LAV 1); 10 mcg/ml, after 10 days): 27%
- Viable cell count (HIV (LAV 1); 10 mcg/ml, after 20 days): 300 × 10⁴ cells/ml
- Viral antigen-positive cell percentage (HIV (LAV 1); 10 mcg/ml, after 20 days): 10%
- Viable cell count (HIV (LAV 1); 10 mcg/ml, after 30 days): 330 × 10⁴ cells/ml
- Viral antigen-positive cell percentage (HIV (LAV 1); 10 mcg/ml, after 30 days): ≦1%
- cytotoxicity (CEM cells): no cytotoxicity

Compound: CCn1cc(C(=O)O)c(=O)c2cc(F)c(N3CCNCC3)nc21 [ENX, 1-ethyl-6-fluoro-1,4-dihydro-4-oxo-7-(1-piperazinyl)-1,8-naphthyridine-3-carboxylic acid sesqui-hydrate]
- LD50 (in vivo): ≥ 4000 mg/kg
- Viable cell count (HIV (LAV 1); 1 mcg/ml, after 4 days): 220 × 10⁴ cells/ml
- Viral antigen-positive cell percentage (HIV (LAV 1); 1 mcg/ml, after 4 days): 88%
- Viable cell count (HIV (LAV 1); 1 mcg/ml, after 7 days): 64 × 10⁴ cells/ml
- Viral antigen-positive cell percentage (HIV (LAV 1); 1 mcg/ml, after 7 days): 70%
- Viable cell count (HIV (LAV 1); 1 mcg/ml, after 10 days): 29 × 10⁴ cells/ml
- Viable cell count (HIV (LAV 1); 1 mcg/ml, after 20 days): 7 × 10⁴ cells/ml
- Viable cell count (HIV (LAV 1); 1 mcg/ml, after 30 days): 0 × 10⁴ cells/ml
- Viable cell count (HIV (LAV 1); 2.5 mcg/ml, after 4 days): 240 × 10⁴ cells/ml
- Viral antigen-positive cell percentage (HIV (LAV 1); 2.5 mcg/ml, after 4 days): 90%
- Viable cell count (HIV (LAV 1); 2.5 mcg/ml, after 7 days): 67 × 10⁴ cells/ml
- Viral antigen-positive cell percentage (HIV (LAV 1); 2.5 mcg/ml, after 7 days): 65%
- Viable cell count (HIV (LAV 1); 2.5 mcg/ml, after 10 days): 30 × 10⁴ cells/ml
- Viable cell count (HIV (LAV 1); 2.5 mcg/ml, after 20 days): 1 × 10⁴ cells/ml
- Viable cell count (HIV (LAV 1); 2.5 mcg/ml, after 30 days): 2 × 10⁴ cells/ml
- Viable cell count (HIV (LAV 1); 5 mcg/ml, after 4 days): 210 × 10⁴ cells/ml
- Viral antigen-positive cell percentage (HIV (LAV 1); 5 mcg/ml, after 4 days): 93%
- Viable cell count (HIV (LAV 1); 5 mcg/ml, after 7 days): 58 × 10⁴ cells/ml
- Viral antigen-positive cell percentage (HIV (LAV 1); 5 mcg/ml, after 7 days): 68%
- Viable cell count (HIV (LAV 1); 5 mcg/ml, after 10 days): 78 × 10⁴ cells/ml
- Viable cell count (HIV (LAV 1); 5 mcg/ml, after 20 days): 11 × 10⁴ cells/ml
- Viable cell count (HIV (LAV 1); 5 mcg/ml, after 30 days): 310 × 10⁴ cells/ml
- Viral antigen-positive cell percentage (HIV (LAV 1); 5 mcg/ml, after 30 days): ≦1%
- Viable cell count (HIV (LAV 1); 10 mcg/ml, after 4 days): 140 × 10⁴ cells/ml
- Viral antigen-positive cell percentage (HIV (LAV 1); 10 mcg/ml, after 4 days): 88%
- Viable cell count (HIV (LAV 1); 10 mcg/ml, after 7 days): 52 × 10⁴ cells/ml
- Viral antigen-positive cell percentage (HIV (LAV 1); 10 mcg/ml, after 7 days): 68%
- Viable cell count (HIV (LAV 1); 10 mcg/ml, after 10 days): 150 × 10⁴ cells/ml
- Viral antigen-positive cell percentage (HIV (LAV 1); 10 mcg/ml, after 10 days): 30%
- Viable cell count (HIV (LAV 1); 10 mcg/ml, after 20 days): 178 × 10⁴ cells/ml
- Viral antigen-positive cell percentage (HIV (LAV 1); 10 mcg/ml, after 20 days): 5%
- Viable cell count (HIV (LAV 1); 10 mcg/ml, after 30 days): 379 × 10⁴ cells/ml
- Viral antigen-positive cell percentage (HIV (LAV 1); 10 mcg/ml, after 30 days): ≦1%
- viability at 1 µg/mL (HIV (LAV 1); [1]): 95%
- viability at 2.5 µg/mL (HIV (LAV 1); [1]): 95%
- viability at 5 µg/mL (HIV (LAV 1); [1]): 98%
- viability at 10 µg/mL (HIV (LAV 1); [1]): 97%
- cytotoxicity (CEM cells): no cytotoxicity
